Results: patent US20220347175A1, “PYRIDAZINONE DERIVATIVE” (Sumitomo Dainippon Pharma Co., Ltd., priority 2018, published 2022)

These compounds were tested against T1, human Nav1.1 (Homo sapiens, UniProt P35498) (assay: Amplification of Nav1.1-derived voltage-dependent sodium current (Nav1.1 current), cell line stably expressing human Nav1.1, automated patch clamp). Details: 10 μmol/L compound (Test Result 5).
T1 construct: host or cells: HEK293
Type: cell-based
Protocol: Test 1: Evaluation of the Amplification of Nav1.1-Derived Voltage-Dependent Sodium Current (Nav1.1 Current) by Using a Cell Line Stably Expressing Human Nav1.1
(1) Preparation of Test Compounds
Test compounds were prepared by dissolving in DMSO at 200 times of the concentration at evaluation, and diluting the obtained solution to twice the concentration of evaluation with an extracellular fluid (135 mmol/L NaCl, 4 mmol/L KCl, 1 mmol/L MgCl2, 5 mmol/L CaCl2, 5 mmol/L Glucose, 10 mmol/L HEPES).
(2) Induction and Measurement of Nav1.1 Current
A HEK293 cell line stably expressing human Nav1.1 (cat #CYL3009, Millipore, USA, Human Embryonic Kidney 293) was purchased, and used in the present test. Nav1.1 current was induced by stimulating Ramp wave voltage. Detection of current which accompanied with the stimulation of voltage was carried out by a patch-clamp voltage-clamp method using HTS automated patch clamp system (SynchroPatch 768PE, Nanion Technologies GmbH, Germany). Only cells with more than 500 pA of voltage-dependent sodium channel current were used for the evaluation of the activity of compounds on Nav1.1 current because there was the possibility that currents derived from endogenous voltage-dependent sodium channels accounted for large proportion in cells with less than 500 pA of voltage-dependent sodium channel current which was induced by stimulating Ramp wave voltage.
(3) Pharmacologic Effect on Nav1.1 Current
The effect of test compounds on the amplification of Nav1.1-derived voltage-dependent sodium current was evaluated by using a cell line stably expressing human Nav1.1 and HTS automated patch clamp system. In other words, test compounds were added in an extracellular fluid containing 1% DMSO, and evaluated as a change of the peak value of Nav1.1 current and the area under the curve (AUC).
(4) Method for Pharmacological Evaluation
The Nav1.1 current amplification rates of test compounds were calculated by the following formula:
Nav1.1 current amplification rate (%)=100×[the peak value of Nav1.1 current or the area under the curve after the addition of test compounds]/[the peak value of Nav1.1 current or the area under the curve before the addition of test compounds]−100

Row | Compound | Nav1.1 current amplification rate (%)
1 | N#Cc1ccc(NC(=O)Cn2nc(N3CCCC(O)C3)ccc2=O)cc1 (stereo not drawn) [Example 7] | 3
2 | COC1CCN(c2ccc(=O)n(CC(=O)Nc3ccc(C#N)cc3)n2)CC1 [Example 9] | 11
3 | N#Cc1ccc(NC(=O)Cn2nc(N3CCC4(CC3)COC4)ccc2=O)cc1 [Example 27] | 5
4 | N#Cc1ccc(NC(=O)Cn2nc(N3CCC(C(F)(F)F)CC3)ccc2=O)cc1 [Example 10] | 124
5 | N#Cc1ccc(NC(=O)Cn2nc(C3=CCCCC3)ccc2=O)cc1 [Example 39] | 125
6 | Cc1ccc(-c2ccc(=O)n(CC(=O)Nc3ccnnc3)n2)cc1 [Example 142] | 34
7 | CC1(C)CCN(c2ccc(=O)n(CC(=O)Nc3ccc(C#N)cc3)n2)C1 [Example 21] | 130
8 | CC1CC(C)CN(c2ccc(=O)n(CC(=O)Nc3ccc(C#N)cc3)n2)C1 (stereo not drawn) [Example 14] | 9
9 | CC1CC=C(c2ccc(=O)n(CC(=O)N3CCC(c4cccnc4)CC3)n2)CC1 (racemic) [Example 262] | 124
10 | N#Cc1ccc(NC(=O)Cn2nc(C3CCCCC3)ccc2=O)cc1 [Example 40] | 20
11 | CC1CCC(c2ccc(=O)n(CC(=O)Nc3ccc(C#N)cc3)n2)CC1 (stereo not drawn) [Example 44] | 59
12 | N#Cc1ccc(NC(=O)Cn2nc(N3CCCC3)ccc2=O)cc1 [Example 4] | 3
13 | CCC1(C)CCN(c2ccc(=O)n(CC(=O)Nc3ccc(C#N)cc3)n2)CC1 [Example 28] | 158
14 | N#Cc1ccc(NC(=O)Cn2nc(N3CCC4(CC3)CC4)ccc2=O)cc1 [Example 17] | 212
15 | N#Cc1ccc(NC(=O)Cn2nc(N3CCCCCCC3)ccc2=O)cc1 [Example 12] | 241
16 | N#Cc1ccc(NC(=O)Cn2nc(N3CCCCC3)ccc2=O)cc1 [Example 3] | 40

Further lines, results first:

Row | Nav1.1 current amplification rate (%) | Compound
17 | 52 | CC1CC=C(c2ccc(=O)n(CC(=O)NC3CN(c4ccccc4)C3)n2)CC1 (racemic) [Example 372]
18 | 128 | O=C(Cn1nc(C2=CCCC2)ccc1=O)N1CCc2c(N3CCOCC3)cccc21 [Example 481]
19 | 53 | CC1CC=C(c2ccc(=O)n(CC(=O)N3CCN(Cc4ccncc4)CC3)n2)CC1 (racemic) [Example 392]
20 | 50 | CC1CC=C(c2ccc(=O)n(CC(=O)N3CCC(Oc4ccccc4)CC3)n2)CC1 (racemic) [Example 390]
21 | 44 | CC1CC=C(c2ccc(=O)n(CC(=O)Nc3ccc(CO)nc3)n2)CC1 (racemic) [Example 376]
22 | 53 | CC1CC=C(c2ccc(=O)n(CC(=O)N3CCC(Cc4ccccc4)C3)n2)CC1 (racemic) [Example 389]

Same assay, conditions: 10 μmol/L compound (Test Result 5); read-out: Nav1.1 current amplification rate (%)

Row | activation at 10 µM [%] | Compound
23 | 18 | O=C(Cn1nc(C2=CCCCO2)ccc1=O)N1CCc2c(-c3ccnnc3)cccc21 [Example 525]
24 | 7 | CC1(C)CC=C(c2ccc(=O)n(CC(=O)NC3CCn4ccnc4C3)n2)CC1 (stereo not drawn) [Example 534]

Same assay, conditions: Concentration 1 μM (Test Result 7); read-out: Nav1.1 current amplification rate (%)

Row | activation at 1 µM [%] | Compound
25 | 99 | CN(c1ccc(=O)n(CC(=O)N2CCc3c(N4CCOCC4)cccc32)n1)C1CC2(CC2)C1 [Example 570]
26 | 98 | Cc1ccc(-c2ccc(=O)n(CC(=O)Nc3ccn4ncnc4c3)n2)c(F)c1 [Example 566]
27 | 208 | CC1CC=C(c2ccc(=O)n(CC(=O)Nc3ccc4ccncc4c3)n2)CC1 (stereo not drawn) [Example 544]
28 | 42 | CN(CC1(C)CC1)c1ccc(=O)n(CC(=O)N2CCc3c(N4CCOCC4)cccc32)n1 [Example 568]
29 | 80 | CCC1CC=C(c2ccc(=O)n(CC(=O)Nc3ccc4ncnn4c3)n2)CC1 (stereo not drawn) [Example 555]
30 | 115 | CCC1CC=C(c2ccc(=O)n(CC(=O)Nc3ccn4ncnc4c3)n2)CC1 (stereo not drawn) [Example 554]

Same assay, conditions: Concentration 10 μM (Test Result 7); read-out: Nav1.1 current amplification rate (%)

Row | activation at 10 µM [%] | Compound
31 | 73 | CN(c1ccc(=O)n(CC(=O)Nc2cnc3cccnc3c2)n1)C1CCCC1 [Example 564]
32 | 24 | COc1cc(C)cc(F)c1-c1ccc(=O)n(CC(=O)Nc2ccn3ncnc3c2)n1 [Example 571]

Same assay, conditions: compound 50 μmol/L; HEK293 stably expressing human Nav1.1

Row | Compound | Nav1.1 current amplification rate (%)
33 | COCCCN1CC2(CCN(C(=O)Cn3nc(C4=CCC(C)CC4)ccc3=O)C2)C1 (racemic) [Example 308] | 9
34 | CC1CC=C(c2ccc(=O)n(CC(=O)Nc3ccnc(C4=CCN(C)C4)c3)n2)CC1 (racemic) [Example 371] | 64
35 | CC1CC=C(c2ccc(=O)n(CC(=O)N3CCc4nc(-c5cn[nH]c5)ccc43)n2)CC1 (racemic) [Example 289] | 51

Other lines, results leading:

Row | Nav1.1 current amplification rate (%) | Compound
36 | 80 | CC1CC=C(c2ccc(=O)n(CC(=O)N3CCN(C4CCCOC4)CC3)n2)CC1 (stereo not drawn) [Example 408]
37 | 42 | CC1CC=C(c2ccc(=O)n(CC(=O)N3CC=C(c4ccccn4)C3)n2)CC1 (racemic) [Example 385]
38 | 29 | O=C(Cn1nc(C2=CCCC2)ccc1=O)Nc1ccn2ccnc2c1 [Example 457]
39 | 36 | CC1CC=C(c2ccc(=O)n(CC(=O)N3CCN(c4ccn(C)n4)CC3)n2)CC1 (stereo not drawn) [Example 412]
40 | 126 | CC1CC=C(c2ccc(=O)n(CC(=O)N3CC=C(c4cccnc4)C3)n2)CC1 (racemic) [Example 386]

Same assay, conditions: compound 50 μmol/L; HEK293 stably expressing human Nav1.1; read-out: Nav1.1 current amplification rate (%)

Row | Compound | activation at 50 µM [%]
41 | CC1CC2CCC(C1)N2c1ccc(=O)n(CC(=O)Nc2ccn3ccnc3c2)n1 (stereo not drawn) [Example 237] | 27
42 | CC1CCN(c2ccc(=O)n(CC(=O)Nc3ccc4c(c3)NCC4)n2)CC1 [Example 233] | 47
43 | CC1CC2CCC(C1)N2c1ccc(=O)n(CC(=O)N2CCc3c(N4CCOCC4)cccc32)n1 (stereo not drawn) [Example 238] | 128

Same assay, conditions: concentration of each compound 1 μmol/L (Test Result 6)

Row | Compound | Nav1.1 current amplification rate (%)
44 | COC1CCN(Cc2cccc3c2CCN3C(=O)Cn2nc(C3=CCC(C)CC3)ccc2=O)C1 (mixture of isomers) [Example 272] | 127
45 | CC1CC=C(c2ccc(=O)n(CC(=O)Nc3cnc4nccn4c3)n2)CC1 (racemic) [Example 337] | 52
46 | CC1CC=C(c2ccc(=O)n(CC(=O)N3CCc4c3ccnc4-c3cccnc3)n2)CC1 (racemic) [Example 297] | 151
47 | CC1CC=C(c2ccc(=O)n(CC(=O)N3CCc4c3ccnc4C3=CCN(C)C3)n2)CC1 (racemic) [Example 283] | 15

Results, then the compound that gave them:

Row | Nav1.1 current amplification rate (%) | Compound
48 | 37 | CC1CC=C(c2ccc(=O)n(CC(=O)Nc3cncc(-c4cnn(C)c4)c3)n2)CC1 (racemic) [Example 378]
49 | 82 | Cc1ncc(-c2cncc(NC(=O)Cn3nc(C4=CCC(C)CC4)ccc3=O)c2)o1 (racemic) [Example 380]
50 | 15 | CC1CC=C(c2ccc(=O)n(CC(=O)N3CCCN(c4cccnc4)CC3)n2)CC1 (racemic) [Example 384]

Same assay, conditions: concentration of each compound 1 μmol/L (Test Result 6); read-out: Nav1.1 current amplification rate (%)

Row | activation at 1 µM [%] | Compound
51 | 50 | O=C(Cn1nc(N2CCC3(CCC3)CC2)ccc1=O)Nc1ccn2ncnc2c1 [Example 231]
52 | 135 | O=C(Cn1nc(C2=CCCCC2)ccc1=O)N1CCc2c(CN3CCOCC3)cccc21 [Example 519]
53 | 28 | O=C(Cn1nc(C2=CCCCC2)ccc1=O)Nc1ccn2ncnc2c1 [Example 495]
54 | 14 | COc1cc(=O)n(CC(=O)Nc2ccc3oc(N(C)C)nc3c2)nc1C1=CCC(C)(C)CC1 [Example 500]
